Several values for one entry are separate records, joined by “and”; a condition that tells them apart may be missing. Equal values may be shown once. Read-outs that look alike come from different tables or passages of the source. Marks after values point to notes of the source that are not given here.
Assays:
[1] = molecular target: T1, Escherichia coli CTP synthetase (EcCTPS) (Escherichia coli, UniProt P0A7E5); experiment: CTP synthesis assay; conditions: for IC50^ox/IC50^red: ratio of oxidized to reduced form IC50, standard conditions; for Kd: best fit; for apparent kcat at 2 μM EcCTPS: annealing at 40 μM EcCTPS; for EC50: EC50 (activation); for Ki: Ki (two-site model)
T1 sequence (P0A7E5 whole entry): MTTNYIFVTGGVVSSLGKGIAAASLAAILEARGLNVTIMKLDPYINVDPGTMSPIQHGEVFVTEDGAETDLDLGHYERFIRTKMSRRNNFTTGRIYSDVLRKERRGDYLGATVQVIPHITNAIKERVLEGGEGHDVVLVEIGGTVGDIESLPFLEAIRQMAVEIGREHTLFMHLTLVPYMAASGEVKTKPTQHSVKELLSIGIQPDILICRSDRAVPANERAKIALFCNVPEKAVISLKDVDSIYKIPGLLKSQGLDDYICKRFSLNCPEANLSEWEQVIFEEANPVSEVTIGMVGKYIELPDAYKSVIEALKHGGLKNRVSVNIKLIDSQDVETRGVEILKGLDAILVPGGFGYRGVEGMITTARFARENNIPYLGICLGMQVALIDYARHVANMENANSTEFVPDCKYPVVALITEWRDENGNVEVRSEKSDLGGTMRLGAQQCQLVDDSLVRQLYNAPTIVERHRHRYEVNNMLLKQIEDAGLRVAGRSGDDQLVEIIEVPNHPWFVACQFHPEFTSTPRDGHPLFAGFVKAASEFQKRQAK

[2] = molecular target: E277R EcCTPS (Escherichia coli, UniProt P0A7E5, E277R); experiment: CTP synthesis assay, filament-blocking mutant E277R EcCTPS; type: biochemical
E277R EcCTPS, sequence (P0A7E5 whole entry E277R): as the sequence (P0A7E5 whole entry) above, with E277R counted along it

[3] = tested on: CTPS glutamine hydrolysis; conditions: low concentrations (0–200 μM); cited from earlier work
[4] = molecular target: T1, Escherichia coli CTP synthetase (EcCTPS); conditions: read-out: IC50 (inhibition of CTP synthesis); higher GTP concentrations; cited from earlier work
[5] = molecular target: EcCTPS (Escherichia coli, UniProt P0A7E5); experiment: Ammonia-dependent CTP synthesis; type: biochemical; conditions: Figure S6
EcCTPS, sequence (P0A7E5 whole entry): as the sequence (P0A7E5 whole entry) above

[6] = inhibitor alone, activating GTP (50 or 200 μM)
[7] = standard: 200 nM EcCTPS, 1.5 mM ATP, 600 μM UTP, 10 mM glutamine, 200 μM GTP (unless GTP titrated), linear extrapolation
[8] = IC50, standard: 200 nM EcCTPS, 1.5 mM ATP, 600 μM UTP, 10 mM glutamine, 200 μM GTP (unless GTP titrated), linear extrapolation
[9] = 100 nM enzyme, other substrates saturating, 200 μM GTP
[10] = limiting substrate titrated, other substrates saturating, 200 μM GTP, 37 °C
[11] = two ligands present (second inhibitor)

CN1C=CCC(C(N)=O)=C1 [1MDHN, 1-methyl 1,4-dihydronicotinamide]
increase of inhibition potency ([1]; by 400 μM CTP): more than 2 fold | K2/K1 (sequential binding model) [1, 6]: 4–40 | K3/K2 (sequential binding model) [1, 6]: 0.2–0.8 | IC50^ox/IC50^red [1]: >28 | IC50 [1, 7]: 140 ± 10 µM

C[n+]1cccc(C(N)=O)c1 [1MeN, 1-methylnicotinamide]
inhibition at 3000 µM [1]: < 25% | IC50 [1, 8]: ~4000 µM

Nc1ncnc2c1ncn2[C@@H]1O[C@H](COP(=O)(O)OP(=O)(O)O)[C@@H](O)[C@H]1O [ADP, adenosine 5’-diphosphate]
inhibition at 3000 µM [1]: 35% | IC50 [1, 8]: ~4500 µM

Nc1ncnc2c1ncn2[C@@H]1O[C@H](COP(=O)(O)OP(=O)(O)OP(=O)(O)O)[C@@H](O)[C@H]1O [ATP, adenosine 5’-triphosphate]
Hill coeff, nH [1, 9]: 1.7 ± 0.3 | S0.5 [1, 9]: 126 ± 13 µM | S0.5 ([1]; 50 μM GTP): 81 ± 5 µM | Hill coeff, nH ([1]; 60 μM UTP): 1.9 ± 0.4 (5) | S0.5 ([1]; 60 μM UTP): 310 ± 20 µM | S0.5 ([1]; 500 μM GTP): 155 ± 25 µM | Hill coeff, nH [1, 10]: 1.7 ± 0.2 (18)^c

Nc1ccn([C@@H]2O[C@H](COP(=O)(O)OP(=O)(O)OP(=O)(O)O)[C@@H](O)[C@H]2O)c(=O)n1 [CTP, cytidine-5’-triphosphate]
inhibition at 750 µM [1]: 85% | limiting slope of Hill plot, high concentration range ([1]; 50 μM UTP, 100 nM EcCTPS): −1.9 ± 0.3 | limiting slope of Hill plot, low concentration range ([1]; 50 μM UTP, 100 nM EcCTPS): −0.6 ± 0.2 | IC50 ([1]; IC50, 50 μM GTP, otherwise standard): 620 ± 30 µM | IC50 ([1]; IC50, 500 μM GTP, otherwise standard): 220 ± 60 µM | IC50 [1, 8]: ~370 µM and 370 µM | Kd ([1]; K1 (four-site sequential binding model), standard conditions): 446 µM | Kd ([1]; K2 (four-site sequential binding model), standard conditions): 2120 µM | Kd ([1]; K3 (four-site sequential binding model), standard conditions): 1170 µM | Kd ([1]; K4 (four-site sequential binding model), standard conditions): 7.5 µM | increase of inhibition potency ([1]; by 500 μM NADH): 2.3 fold | IC50 ([1]; fit IC50 value (four-site sequential binding model), standard conditions): 385 µM | K2/K1 (sequential binding model) [1, 6]: 4–40 | K3/K2 (sequential binding model) [1, 6]: 0.2–0.8 | IC50 relative to UTP concentration (fold lower) ([1]; saturating UTP (600 μM)): 1.6 fold | average slope of Hill plot ([1]; standard conditions): −2.0 | K2/K1 (sequential binding model) [1, 11]: 0.4–0.8 | K3/K2 (sequential binding model) [1, 11]: 40–250

Nc1nc2c(ncn2[C@@H]2O[C@H](COP(=O)(O)OP(=O)(O)OP(=O)(O)O)[C@@H](O)[C@H]2O)c(=O)[nH]1 [GTP, guanosine-5’-triphosphate]
EC50 [2]: 46 ± 6 µM | IC50 [2]: 697 ± 4 µM | Ki [2]: 342 µM | kact (two-site model) ([2]; 200 nM E277R): 10.7 s⁻¹ | ninh (two-site model) ([2]; 200 nM E277R): 3.8 | kact (two-site activation/inhibition model) ([1]; 200 nM WT, no other inhibitor): 10.7 s⁻¹ | ninh (two-site model) ([1]; 200 nM WT, no other inhibitor): 4.7 | kact (two-site model) ([1]; 4 μM WT): 4.7 s⁻¹ | ninh (two-site model) ([1]; 4 μM WT): 4.1 | enzyme concentration for 50% autoinhibition ([1]; 50 μM GTP): 6.1 µM | apparent kcat at 2 μM EcCTPS ([1]; 50 μM GTP): 2.9 s⁻¹ | enzyme concentration for 50% autoinhibition ([1]; 200 μM GTP): 3.9 µM | apparent kcat at 2 μM EcCTPS ([1]; 200 μM GTP): 5.0 ± 0.1 s⁻¹ | enzyme concentration for 50% autoinhibition ([1]; 500 μM GTP): 2.8 µM | apparent kcat at 2 μM EcCTPS ([1]; 500 μM GTP): 2.7 ± 1.0 s⁻¹ | EC50 ([1]; 4 μM WT EcCTPS): 27 ± 7 µM | EC50 ([1]; standard: 200 nM EcCTPS, 1.5 mM ATP, 600 μM UTP, 10 mM glutamine): ~38 µM and 38 µM | IC50 ([1]; IC50, 4 μM WT EcCTPS): 455 ± 46 µM | IC50 [1, 8]: 540 ± 60 µM | Ki ([1]; 200 nM WT, no other inhibitor): 301 µM | Ki ([1]; 4 μM WT): 221 µM | optimal GTP concentration ([1]; in presence of 500 μM NADH): approximately 100 μM | concentration of maximum activation ([1]; standard conditions): ~ 200 μM | activation of glutamine hydrolysis [3]: up to 50 fold | IC50 [4]: ~500 µM

NC(=O)C1=CN([C@@H]2O[C@H](COP(=O)(O)OP(=O)(O)OC[C@H]3O[C@@H](n4cnc5c(N)ncnc54)[C@H](O)[C@@H]3O)[C@@H](O)[C@H]2O)C=CC1 [NADH, 1,4 dihydronicotinamide adenine dinucleotide (reduced)]
dose–response of E277R compared with wild-type ([2]; 200 nM enzyme, 0–1500 μM NADH): no significant differences between wild-type and mutant | effect on ammonia-dependent synthesis [5]: inhibits | IC50 ([1]; 50 μM GTP, otherwise standard): 770 ± 30 µM | dependence of inhibition potency on enzyme concentration ([1]; Figure S4): independent of enzyme concentration from 50 to 400 nM | inhibition ([1]; at 1250 μM, standard conditions): greater than 95% | increase of inhibition potency ([1]; by 400 μM CTP): ~ 2.1 fold | K2/K1 (sequential binding model) [1, 6]: 4–40 | K3/K2 (sequential binding model) [1, 6]: 0.2–0.8 | IC50^ox/IC50^red [1]: 3.7 | IC50 [1, 7]: 470 ± 40 µM | K2/K1 (sequential binding model) [1, 11]: 0.4–0.8 | K3/K2 (sequential binding model) [1, 11]: 40–250

NC(=O)C1=CN([C@@H]2O[C@H](COP(=O)(O)OP(=O)(O)OC[C@H]3O[C@@H](n4cnc5c(N)ncnc54)[C@H](OP(=O)(O)O)[C@@H]3O)[C@@H](O)[C@H]2O)C=CC1 [NADPH, 1,4 dihydronicotinamide adenine dinucleotide 2’-phosphate (reduced)]
IC50^ox/IC50^red [1]: 2.8 | IC50 [1, 7]: 450 ± 20 µM

NC(=O)c1ccc[n+]([C@@H]2O[C@H](COP(=O)([O-])OP(=O)(O)OC[C@H]3O[C@@H](n4cnc5c(N)ncnc54)[C@H](OP(=O)(O)O)[C@@H]3O)[C@@H](O)[C@H]2O)c1 [NADP^+, nicotinamide adenine dinucleotide 2’-phosphate (oxidized)]
IC50 [1, 7]: 1280 ± 50 µM

NC(=O)c1ccc[n+]([C@@H]2O[C@H](COP(=O)([O-])OP(=O)(O)OC[C@H]3O[C@@H](n4cnc5c(N)ncnc54)[C@H](O)[C@@H]3O)[C@@H](O)[C@H]2O)c1 [NAD^+, nicotinamide adenine dinucleotide (oxidized)]
fold less effective inhibition than NADH ([1]; standard conditions): ~ 3 fold | IC50 [1, 7]: 1700 ± 70 µM

O=c1ccn([C@@H]2O[C@H](COP(=O)(O)OP(=O)(O)OP(=O)(O)O)[C@@H](O)[C@H]2O)c(=O)[nH]1 [UTP, uridine-5’- triphosphate]
Hill coeff, nH [1, 9]: 1.3 ± 0.2 | S0.5 [1, 9]: 57 ± 8 µM | Hill coeff, nH ([1]; 150 μM ATP (subsaturating)): 1.8 ± 0.1 (6) | S0.5 ([1]; 150 μM ATP (subsaturating)): 200 ± 40 µM | Hill coeff, nH [1, 10]: 1.4 ± 0.3 (23)^b

NC(=O)CC[C@H](N)C(=O)O [glutamine]
Hill coeff, nH [1, 9]: 1.1 ± 0.1 (11) | S0.5 [1, 9]: 360 ± 20^e μM

— PMC5584805 (Biochemistry, 2016)
